# Laboratory results: PMC7076710, “Synthesis, Identification, and Structure–Activity Relationship Analysis of GATA4 and NKX2-5 Protein–Protein Interaction Modulators” (Journal of Medicinal Chemistry, 2019)
# Experiments:
# Format in all cases: cell-based
# [1] = biological target: T1, GATA4–NKX2-5 transcriptional synergy (Mus musculus, UniProt P42582+Q08369); assay: GATA4–NKX2-5 transcriptional synergy luciferase reporter assay (3xNKE reporter, COS-1 cells); details: COS-1; 3 µM; luciferase reporter activity relative to control
# T1 construct: expressed in transfected cells; host or cells: COS-1
# COS-1 cells [2] = assay: MTT assay (cell viability); details: cell viability
# Excerpt: (§1) To investigate the toxicity as a potential cause of decreased or increased activity in luciferase reporter gene assays, we tested a set of 40 active compounds in the COS-1 cell line used for the luciferase assays. Concentration-dependent toxic effects were investigated using the lactate dehydrogenase (LDH) assay to detect necrosis and the 3-(4,5-dimethylthiazol-2-yl)-2,5-diphenyltetrazolium bromide (MTT) assay as a measure of cell viability. […] For the data analysis, compounds were classified as toxic (Figures 5 and 7) if they induced a >10% decrease in cell viability in the MTT assay at the concentration of 10 μM. The most toxic compounds (35a, 35d, 54, 58, and 63–65) in the MTT assay all contained a phenyl substituent in the southern part ring, while the ortho-nitrophenyl-derivative 39g and the phenyl-substituted thiophene 47t were nontoxic. Higher flexibility in the central parts of the ethers (35a, 35d) and N-acylated amines (58, 64) might contribute to their toxicity, because less rigid compounds are more likely to have affinity to various biological targets. Such interactions can cause toxicity. To confirm and validate the results from MTT assays, we tested three nontoxic (2, 47s, and 72) and three toxic (1, 35a, and 58) compounds in a cell viability assay measuring intracellular ATP content.
# (§2) Figure 5 Effects of selected compounds on COS-1 cell viability. (A) Compound-induced necrosis was quantified with the LDH assay after a 24-h compound exposure. The data are presented as cytotoxicity percentage (% of maximal LDH release). (B) Cell viability was analyzed with the MTT assay after a 24-h compound exposure. (A,B) The data are means from 2–3 independent experiments with 3 replicate wells in each and are presented as % of control (vehicle-treated cells). The compounds have been grouped on the basis of the structure of the central part: a, amide; b, ether; c, N-acylated amine; d, amine; and e, imine. (C) The effects of selected compounds on cell viability as determined by ATP content after a 24-h compound exposure. The data are mean + SEM from three independent experiments and are presented as % of vehicle-treated cells.
# (§3) For toxicity screening, COS-1 cells were cultured in DMEM (Sigma-Aldrich, Steinheim, Germany) supplemented with 10% fetal bovine serum, 100 U/mL penicillin, and 100 μg/mL streptomycin (all from Gibco, Thermo Scientific) at 37 °C with 5% CO2. The cells were plated on 96-well plates at 10 000 cells/well and exposed to test compounds at a concentration range of 1–30 μM on the following day. After a 24-h compound treatment, lactate dehydrogenase (LDH) and 3-(4,5-dimethylthiazol-2-yl)-2,5-diphenyltetrazolium bromide (MTT) assays were carried out as described previously.[48] Briefly, LDH activity was determined from 50 μL samples of cell culture medium, to which 50 μL of substrate solution [1.3 mM β-nicotinamide-adenine dinucleotide, 660 μM iodonitrotetrazolium, 54 mM L(+)-lactic acid, and 280 μM phenazine methosulfate in 0.2 M Tris-HCl, pH 8.2, all from Sigma-Aldrich] was added, and the plate was incubated for 30 min at room temperature. The reaction was stopped with acetic acid (final concentration 333 mM), and absorbance was measured at 490 nm. The absorbance values of the samples were normalized to maximal LDH release and spontaneous LDH release determined on the same plate. Mitochondrial metabolic activity was quantified by incubating the cells with 0.5 mg/mL MTT (from Sigma-Aldrich) for 2 h at 37 °C with 5% CO2, whereafter culture medium was removed and formazan crystals were dissolved in DMSO. The absorbance was measured at 550 nm, and absorbance at 650 nm was subtracted as background.
# [3] = biological target: T2, NKX2-5 transcriptional activity (Mus musculus, UniProt P42582); assay: NKX2-5 luciferase reporter assay (3xNKE reporter, COS-1 cells); details: COS-1; 3 µM; luciferase reporter activity relative to control; read-out: NKX.3µM
# T2 construct: expressed in transfected cells; host or cells: COS-1
# Protocol: (§4) To screen compounds for the GATA4–NKX2-5 interaction, we have developed a luciferase reporter assay based on their property to activate gene transcription synergistically through the NKX2-5 binding site on DNA.[28] In this assay, we transfected mammalian COS-1 cells with protein expression vectors for GATA4 and NKX2-5 proteins together with artificial luciferase reporter vector containing three high affinity binding sites for NKX2-5 (NKE). […] All 257 compounds were tested in two concentrations, 3 and 10 μM. Compounds either inhibited, enhanced, or had no effect on the GATA4–NKX2-5 transcriptional synergy. To investigate the selectivity of the active compounds, we tested their effects on NKX2-5 transcriptional activity by using the same luciferase reporter vector as in transcriptional synergy assay with three NKE sites (Figure 3B). Furthermore, we used GATA luciferase reporter assay to examine if compounds have an effect on GATA4 transcriptional activity. In this assay, we cotransfected the cells with a GATA4 protein expression vector and a reporter vector with tandem GATA4 binding sites (Figure 3C). Previously we have reported that compound 1 inhibited the GATA4–NKX2-5 transcriptional synergy at micromolar concentrations (IC50 = 3 μM).[29]
# (§5) The plasmids expressing mouse GATA4 protein, pMT2-GATA4, and empty pMT2 were gifts from D. B. Wilson (Department of Pediatrics, St. Louis Children’s Hospital, St. Louis, MO).[44] The plasmids expressing mouse NKX2-5 protein, pMT2-NKX2-5, have been described earlier.[28] The luciferase reporter plasmid used in GATA4–NKX2-5 transcriptional synergy assay and NKX transcriptional assay, pGL3-3xHA, contains three high affinity binding sites for NKX2-5.[28] The luciferase reporter plasmid used in GATA transcriptional assay, NP-112, contains tandem GATA-sites and minimal promoter of rat brain natriuretic peptide (BNP) gene.[45] The pGL3-BNP luciferase reporter containing −534/+4 bp rat BNP proximal promoter described previously was used in hypertrophy assay.[46]
# (§6) The primary screening assay of compounds’ effect on GATA4–NKX2-5 transcriptional synergy and COS-1 cell culturing has been described earlier.[33] […] (Kinnunen et al., unpublished observation). Briefly, COS-1 cells were seeded at 14 000 cells/well in Isoplate-96 microplates (PerkinElmer, Turku, Finland) and grown overnight. The cells were transfected with the luciferase reporter plasmid pGL3-3xHA 100 ng/well and equal amounts of expression plasmids pMT2-GATA4 and pMT2-NKX2-5 total 50 ng/well. To verify the synergistic effect, the cells were transfected with pMT2-GATA4 or pMT2-NKX2-5 25 ng/well, and the total DNA concentration was adjusted to 50 ng/well with empty pMT2 plasmid. In NKX2-5 and GATA4 luciferase reporter assays, the cells were transfected with reporter plasmid pGL3-3xHA or NP-112 (100 ng/well) and expression plasmid pMT2-NKX2-5 or pMT2-GATA4 (25 ng/well). The ratio of DNA/transfection reagent (Fugene 6, Promega) was 1:3 in all assays. The transfections were performed in serum and antibiotics free media for 6 h. The cells were treated with compounds or vehicle (0.1% DMSO) for 24 h, and the luminescence was measured using neolite Reporter Gene Assay System (PerkinElmer, Turku, Finland) and Victor2 plate reader (PerkinElmer, Turku, Finland).
# (§7) Raw luciferase data were analyzed in Excel, and clear outliers were removed from triplicates by using the Grubb’s test. Data analysis was performed using R.[49] The luciferase data were first normalized on the basis of the combined mean value of controls. For data visualization and creation of figures, the following R packages were used: ggplot2, cowplot, RColorBrewer, and pheatmap. The heatmaps of the toxicity data were produced with GraphPad Prism 7.00 (GraphPad Software, La Jolla, CA). Statistical significance of luciferase reporter assay data was evaluated by randomized block analysis of variance followed by Dunnett’s post hoc test. […]
# [4] = biological target: T3, GATA4 transcriptional activity (Mus musculus, UniProt Q08369); assay: GATA4 luciferase reporter assay (tandem GATA-site reporter, COS-1 cells)
# T3 construct: expressed in transfected cells; host or cells: COS-1
# Protocol: as §4, §5, §6, §7
# COS-1 cells [5] = assay: LDH assay (necrosis)
# Excerpt: as §1, §2, §3
# [6] = COS-1, luciferase reporter activity relative to control
# T3 sequence (Q08369 whole entry): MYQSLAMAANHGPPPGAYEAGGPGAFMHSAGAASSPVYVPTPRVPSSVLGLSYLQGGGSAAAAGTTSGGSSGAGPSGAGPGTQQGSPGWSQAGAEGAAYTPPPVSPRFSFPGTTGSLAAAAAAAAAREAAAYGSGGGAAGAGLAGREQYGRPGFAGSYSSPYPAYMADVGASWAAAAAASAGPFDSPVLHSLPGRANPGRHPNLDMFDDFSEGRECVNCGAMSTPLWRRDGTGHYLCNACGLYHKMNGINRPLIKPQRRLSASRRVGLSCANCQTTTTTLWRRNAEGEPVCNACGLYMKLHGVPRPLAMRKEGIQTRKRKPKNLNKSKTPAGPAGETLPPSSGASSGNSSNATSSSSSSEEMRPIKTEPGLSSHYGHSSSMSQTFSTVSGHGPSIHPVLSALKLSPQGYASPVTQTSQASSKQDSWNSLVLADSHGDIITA
# T1 sequence (Q08369 whole entry): as above
# T1 sequence (P42582 whole entry): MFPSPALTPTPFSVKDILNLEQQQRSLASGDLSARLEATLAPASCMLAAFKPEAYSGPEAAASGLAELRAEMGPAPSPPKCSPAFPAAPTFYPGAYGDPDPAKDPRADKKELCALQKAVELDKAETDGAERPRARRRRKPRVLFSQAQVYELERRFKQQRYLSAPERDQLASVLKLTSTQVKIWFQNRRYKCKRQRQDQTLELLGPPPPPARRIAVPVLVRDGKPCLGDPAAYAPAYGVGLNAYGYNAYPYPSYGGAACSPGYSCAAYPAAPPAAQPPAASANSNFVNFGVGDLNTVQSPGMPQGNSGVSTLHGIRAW
# T2 sequence (P42582 whole entry): as above
activity at 3 µM [1],activity at 3 µM [3],"activity at 3 µM [4, 6]","activity at 10 µM ([4]; COS-1, 10 µM, luciferase reporter activity relative to control)","GATA4 (% of control) Mean ± SD ([4]; 10 μM, COS-1 cells, 24 h)",Structure (SMILES),MTT.1µM (COS-1 cells [2]),MTT.3µM (COS-1 cells [2]),MTT.10µM (COS-1 cells [2]),MTT.30µM (COS-1 cells [2]),LDH.1µM (COS-1 cells [5]),LDH.3µM (COS-1 cells [5]),LDH.10µM (COS-1 cells [5]),LDH.30µM (COS-1 cells [5])
79.7%,104%,101%,,,"CCC(OC)c1ccc(OCc2c(-c3ccccc3)noc2C)cc1 (racemic) [Compound 34e, (rac)-4-[[4-(1-Methoxypropyl)phenoxy]methyl]-5-methyl-3-phenylisoxazole]",102.33,95.44,86.07,79.5,1.31,-0.22,-0.78,0.55
97.5%,99%,114%,,,"CCN(CC)c1ccc(CNc2c(-c3ccccc3)noc2C)cc1 [Compound 33, N-[4-(Diethylamino)benzyl]-5-methyl-3-phenylisoxazol-4-amine]",111.17,102.56,104.2,96.47,2.57,2.98,2.01,0.31
,71.1%,92.4%,,,CCN(CC)c1ccc(NC(=O)c2snnc2-c2ccccc2)cc1 [Compound 47n],104.04,91.5,90.69,79.72,1.44,1.32,0.75,1.71

# The next lines start with the compound.
Structure (SMILES),activity at 3 µM [1],activity at 3 µM [3],"activity at 3 µM [4, 6]","activity at 10 µM ([4]; COS-1, 10 µM, luciferase reporter activity relative to control)","GATA4 (% of control) Mean ± SD ([4]; 10 μM, COS-1 cells, 24 h)",MTT.1µM (COS-1 cells [2]),MTT.3µM (COS-1 cells [2]),MTT.10µM (COS-1 cells [2]),MTT.30µM (COS-1 cells [2]),LDH.1µM (COS-1 cells [5]),LDH.3µM (COS-1 cells [5]),LDH.10µM (COS-1 cells [5]),LDH.30µM (COS-1 cells [5])
CCN(CC)c1ccc(NC(=O)c2c(C)noc2-c2cc(C)on2)cc1 [Compound 3],75.5%,106%,96.7%,102%,,105.34,105.48,100.7,92.68,0.35,-0.67,-1.59,-1.83
Cc1onc(-c2ccccc2)c1C(=O)Nc1ccc2oc(-c3ccccc3)cc(=O)c2c1 [Compound 4g],62.6%,85.2%,40.2%,,66 % of control,109.72,101.99,88.31,82.48,-0.29,0.38,-0.94,-0.1
"CCN(c1ccc(NC(=O)c2c(-c3ccccc3)noc2C)cc1)C(C)C [Compound 4i, N-[4-[Ethyl(isopropyl)amino]phenyl]-5-methyl-3-phenylisoxazole-4-carboxamide]",64.9%,55.3%,84.1%,,,100.09,98.4,87.88,85.16,0.82,0.18,-0.77,-0.17
"Cc1onc(-c2ccccc2)c1C(=O)Nc1ccc(C#C[Si](C)(C)C)cc1 [Compound 4j, 5-Methyl-3-phenyl-N-[4-[(trimethylsilyl)ethynyl]phenyl]isoxazole-4-carboxamide]",67.8%,98.2%,110%,,,104.97,104.95,102.07,,1.09,1.13,0.61,1.5
C=CCN(Cc1ccc(N(CC)CC)cc1)c1c(-c2ccccc2)noc1C [Compound 30b],84.5%,97.2%,82.8%,,,104.18,97.12,96.41,84.34,-1.6,-0.27,1.75,3.61
CCN(CC)c1ccc(CN(C(=O)C(F)(F)F)c2c(-c3ccccc3)noc2C)cc1 [Compound 30c],100%,113%,92.4%,,,100.8,97.78,91.24,75.4,1.2,0,-0.99,-1.08
